Values joined by “and” are separate entries in the source; they are usually repeats but may differ in a detail not shown here. Identical values can stand only once. “Also recorded” adds a separate entry of the source.
How the values were obtained:
[1] = Blood glucose / hypoglycaemia; assay type: in vivo, P10 CD1 mice; details: for blood glucose: HI P10 mice
Protocol: (§1) Thereafter, a dosing experiment was conducted to evaluate the optimal dose for semaglutide in the same neonatal HIE model (Fig. EV2F) and brain protection was measured using a macroscopic scoring system to assess the size of the infarct.
Blood glucose levels (mmol/l) were measured using a blood glucose monitor (CodeFree, SD Biosensor) in naive controls and mice following one semaglutide dose administration (0.25 µg/g) with or without glucose supplementation, intraperitoneally or subcutaneously to determine the best route of administration. Blood samples were collected via cardiac puncture at 0.5 h, 2 h, 24 h, 7 days, and 14 days for glucose test. Brains of P10 naive mice or treated at the different time points were collected (n = 4 per group). All samples were processed using […] as per manufacturer’s instructions (Abcam).

[2] = system: GLP1-R; assay: cAMP content in the brain of naïve P10 mice (blood-brain barrier crossing); assay type: in vivo
Description: Brains of P10 naive mice or treated at the different time points were collected (n = 4 per group). All samples were processed using AMP direct immunoassay kit as per manufacturer’s instructions (Abcam).

[3] = system: pGSK3β-S9; assay: pGSK3β-S9 protein level in brain (western blot) after HI
Protocol: Tissues were homogenized (Ultra-Turrax TP, IKA Labortechnik, Wasserburg, Germany) on ice in 300 ml of RIPA lysis buffer (Thermo) per 100 mg of tissue with 1X protease inhibitor cocktail (Thermo) and incubated for 30 min. Lysates were centrifuged at 14,000 × g, 4 °C for 20 min and overall protein concentrations of the supernatant were determined by Pierce BCA Protein Assay (Life Technologies). […] Proteins were transferred to PDVF membrane at 400 mA for 1 h and membrane was blocked for 1 h at 4 °C with 5% BSA in TBS with 3% Tween-20. Membranes were subsequently incubated overnight at 4 °C with primary antibodies (Appendix Table S2) with 3% BSA in TBS with 3% Tween-20. […] Blots were developed with the ECL system (SuperSignal West Pico, Life Technologies) and imaged using a Genegnome imager (Syngene, Cambridge, UK).
All experiments involved litters of postnatal day 10 CD1 mice (P10) bred in-house. […] This was achieved using heating mats, heated incubators and prompt returning of pups to the dam. […] The left common carotid artery was permanently occluded with 8/0 polypropylene suture and the wound closed with tissue glue. The body temperature was maintained using a heating mat. The mice recovered in an incubator at 37 °C and were returned to the dam for 1 h. […] The pups were then immediately returned to the dam. […] All treatments were administered immediately after HI via intraperitoneal administration. […] Treated animal were culled at either 48 h post HI for ST studies or 60 days post HI for LT studies.

[4] = system: P10 CD1 mice with surgically induced HI; assay: Mortality after semaglutide in neonatal mice with HI; assay type: in vivo; details: semaglutide 0.5 µg/g (500 µg/kg), no glucose
Protocol: as §1
The body temperature was maintained using a heating mat. […] The pups were then immediately returned to the dam. […] 1% mortality was observed following this procedure. […] The study design is illustrated in Fig. EV1.

[5] = system: CREB; assay: CREB expression (qPCR) in primary neurons exposed to OGD; assay type: cell-based, CD1 mice; details: p = 0.0016 exendin-4, p = 0.0002 semaglutide
Protocol: (§2) Cells were plated at a density of 2 × 10^6 cells/6 cm plate and propagated. At DIV 10–12, neurons were subjected to oxygen–glucose deprivation (OGD) in neurobasal-A medium lacking glucose and incubated in a hypoxia chamber (Billups-Rothenburg Inc., Del Mar, CA, USA) filled with an anoxic atmosphere of 5% CO2 balanced in nitrogen at 37 °C for 2 h. […] Culture medium was assayed after 24 h.
(§3) RNA from neuron cultures or brains was extracted and isolated using RNeasy Mini kit (Qiagen) and first-strand cDNA was generated using High-Capacity cDNA Reverse Transcription kit (Applied Biosystems). Quantitative RT-PCR was carried out using a StepOnePlus (Applied Biosystems) with the SsoAdvanced™ Universal SYBR Green PCR Core Reagents Supermix (Bio-Rad). Primers sequences were designed to detect GLP1-R, CREB, GSK3β, il-10, IL-4, IL-1β, ATF-3, Bcl-2, Bcl-xL (Appendix Table S1). Data from StepOne™ software v2.3 were calibrated to Gapdh, and the relative quantitation of gene expression was performed using the comparative CT method.

[6] = system: caspase 3; assay: Caspase 3 activity in primary neurons exposed to OGD; assay type: cell-based, CD1 mice
Protocol: as §2
Culture medium was assayed after treatment at 24 h post-OGD. All samples were processed using Multiplex caspases 3, 8 and 9 activity assay kit as per manufacturer’s instructions (Abcam – Ab219915).

[7] = system: HIF-1-α; assay: HIF-1-α expression (qPCR) in primary neurons exposed to OGD; assay type: cell-based, CD1 mice; details: p < 0.0001 exendin-4, p < 0.0001 semaglutide
Protocol: as §2, §3

[8] = system: ATF-3; assay: ATF-3 expression (qPCR, immunofluorescence) in primary neurons exposed to OGD; assay type: cell-based, CD1 mice
Protocol: as §2, §3
Neuronal cultures (n = 6 per group) were stained by simultaneous overnight incubation with ATF-3 and anti-NeuN antibodies (Appendix Table S2). Representative images were captured using a Zeiss LSM710 confocal microscope and Zen software (Carl Zeiss AG). […] All images were processed using Imaris v.9.1 (Bitplane AG).

[9] = system: human GLP1-R; assay: GLP1-R activation, luciferase reporter in GLP1-R/pCRE-luciferase/CHO-K1 cells; assay type: cell-based; details: exendin-9 (500 nM) with 1 μM semaglutide or exendin-4
Protocol: For biological evaluation of GLP-1/Fc for human GLP1-R activation, GLP1-R/pCRE-Luciferase-co-expressed CHO cell lines were established using the lipofectamine method. […] Using a luciferase assay system (Promega – E1500), activity of the GLP1 receptor can be assessed following treatment with GLP1-R agonists for 24 h in 96-well plates.

| effect of antagonist on anti-apoptotic effects of exendin-4 and semaglutide ([6]; Bcl-xL, Bcl-2, caspases 3, 8, 9) | Molecule | blood glucose ([1]; 0.5 µg/g IP, 30 min, p = 0.0002) | blood glucose ([1]; 0.5 µg/g IP, 2 h, p = 0.0003) | blood glucose ([1]; 0.5 µg/g IP, 24 h, p = 0.0003) | blood glucose ([1]; 0.5 µg/g SC, 2 h, p = 0.0180) | blood glucose ([1]; 0.5 µg/g SC, 24 h, p = 0.0289) | hypoglycaemia with oral glucose supplementation ([1]; 2 mg/g oral glucose, semaglutide 0.5 µg/g) | fall in blood glucose ([1]; intraperitoneal, high dose in HI neonatal mice) | blood-brain barrier crossing ([2]; IP, naïve neonatal mice) | entry into the brain and GLP1-R activation, IP vs SC ([2]; p < 0.0001 at 30 mins, p = 0.0024 at 2 h) | pGSK3β-S9 protein level ([3]; after HI, western blot, relative to β-actin, single animals, n = 4) | pGSK3β-S9 protein level vs HI saline ([3]; p = 0.0001 both) | mortality / recovery after HI surgery [4] | CREB expression vs OGD [5] | Caspase 3 activity ([6]; 24 h post-OGD, single replicates, n = 5, listed as Ex-9) | HIF-1-α expression vs OGD [7] | ATF-3 average expression/GAPDH ([8]; OGD neurons, treatment 2 h after OGD, qPCR, single samples, n = 3, listed as Ex-9) | ATF-3 expression vs OGD ([8]; qPCR and immunofluorescence, p = 0.0378 exendin-4, p = 0.0226 semaglutide) | effect of antagonist on agonist-induced luciferase expression [9] |
| --- | --- | --- | --- | --- | --- | --- | --- | --- | --- | --- | --- | --- | --- | --- | --- | --- | --- | --- | --- |
|  | CC[C@H](C)[C@H](NC(=O)[C@H](Cc1ccccc1)NC(=O)[C@H](CCC(=O)O)NC(=O)[C@H](CCCCNC(=O)COCCOCCNC(=O)COCCOCCNC(=O)CC[C@H](NC(=O)CCCCCCCCCCCCCCCCC(=O)O)C(=O)O)NC(=O)[C@H](C)NC(=O)[C@H](C)NC(=O)[C@H](CCC(N)=O)NC(=O)CNC(=O)[C@H](CCC(=O)O)NC(=O)[C@H](CC(C)C)NC(=O)[C@H](Cc1ccc(O)cc1)NC(=O)[C@H](CO)NC(=O)[C@H](CO)NC(=O)[C@@H](NC(=O)[C@H](CC(=O)O)NC(=O)[C@H](CO)NC(=O)[C@@H](NC(=O)[C@H](Cc1ccccc1)NC(=O)[C@@H](NC(=O)CNC(=O)[C@H](CCC(=O)O)NC(=O)C(C)(C)NC(=O)[C@@H](N)Cc1cnc[nH]1)[C@@H](C)O)[C@@H](C)O)C(C)C)C(=O)N[C@@H](C)C(=O)N[C@@H](Cc1c[nH]c2ccccc12)C(=O)N[C@@H](CC(C)C)C(=O)N[C@H](C(=O)N[C@@H](CCCNC(=N)N)C(=O)NCC(=O)N[C@@H](CCCNC(=N)N)C(=O)NCC(=O)O)C(C)C [semaglutide] | Statistically significant hypoglycaemia | Statistically significant hypoglycaemia | Statistically significant hypoglycaemia | Statistically significant hypoglycaemia | Statistically significant hypoglycaemia | completely compensated for by oral supplementation with 2 mg/g glucose | drop significantly within 30 min | cross the blood-brain barrier | more rapid when the agonist was given IP compared with subcutaneously | 0.3664 and 0.5017 and 0.5395 and 0.3157 | modulated | increased mortality; also recorded: some mice did not recover from HI surgery |  |  |  |  |  |  |
| inhibited the anti-apoptotic effects | exendin 9-39 [exendin-9] |  |  |  |  |  |  |  |  |  |  |  |  | blocked this effect | 1.4812 and 1.737 and 1.2406 and 1.699 and 1.511 | inhibited this improvement | 21.697 and 22.687 and 26.651 | inhibited this effect | inhibited |
